US12102685B2, “Immodulator peptides covalently modified with small molecules” (priority 2020, dated 2024)
Marks after values point to notes of the source that are not given here. Peptide text beside a SMILES is read from it.

Key:
[1] = Binding to heparin-agarose spin column (x3D); settings: 1 ug SA488-labelled peptide
Protocol: 1 ug Streptavidin-Alexa 488 conjugate (SA488)-labelled IM peptide in PBS buffer was loaded on a spin column packed with 0.2 ml bed volume heparin-agarose (G-Biosciences, St. Louis, MO). The column was centrifuged for 2 min at 2,000 G and the flow-through was collected. The column was then washed with 0.3 ml 1% BSA in PBS buffer and the column spin repeated. Flowthrough and wash were pooled and duplicate 20 uL aliquots counted in a standard fluorometer (excitation/emission 485/525 nm). Results are expressed as percentage of input counts that bound the heparin-agarose column, versus flowthrough. Percent counts bound to heparin-agarose resin are shown below. IM3, IM5 and IM6 peptides bind heparin-agarose in this assay.

[2] = Binding to Echelon PPI Arrays (x9B); set-up: key: 0=no binding; 1=low binding; 2=medium binding; 3=high binding; settings: 100 pmol PPI spot, colorimetric readout
Text: Binding of immodulator peptides to Echelon PPI Arrays. PPI arrays were purchased from Echelon Biosciences (Sal Lake City, UT) and used according to the manufacturer's recommendations. Colorimetric readout from each 100 pmol PPI spot in the array is expressed as 0=no binding, 1=low binding, 2=medium binding and 3=high binding. […] In addition, IM3 and IM5 show slight binding to PI(3,4,5)P3.

[3] = Alexa488-SA-labelled IM1-IM6 binding to metal-charged NTA-coated plate (x2B d); settings: no peptide background = 1.0
Protocol: NTA-metal-affinity fluorescence assay was performed using 96-well NTA-metal-coated plates readily available from commercial sources such as Qiagen (Germantown, MD). NTA was charged with ferrous or ferric iron, zinc, copper, calcium, vanadium, ruthenium, cobalt, titanium, manganese or other metals. 400 ng of FITC-labeled immodulator peptide (or biotinylated immodulator peptide complexed to Alexa-488-labeled streptavidin) in PBS buffer was added per plate. After incubation at room temperature for 60 minutes, excess peptide was washed off and peptide was detected by measuring fluorescence (excitation 490 nm, emmission 525 nm) in a fluorometer. • (a) Using FITC-labeled IM3 peptide (1 ug/well) in the fluorescent binding assay: • EDTA-treated control: 2,251±1,186 • Ferrous iron: 170,441±11,264 (p<0.001)* • Copper: 13,644±5566 (p<0.05)* • Calcium: 48,822±11,990 (p<0.01)* • *p values are relative to EDTA-treated control • (b) Competition binding assay to ferrous iron, calcium, copper and zinc-charged NTA-coated plates using FITC-labeled IM3 peptide (0.5 uM) and 8× (4 uM) unlabelled competitor peptides IM3N1, IM3N2 (*all comparisons to PBS control are p<0.01); # fluorescent value of binding to […] was set at 100.
Ferrous iron # (100±2.6*); Control (no metal): 6.4±3.1; Ferric iron: 94.1±6.6*; Calcium: 47.6±3.7*; Vanadium: 53.9±5.5*; Manganese: 54.4±11.2*; Cobalt: 25.4±2.3*; Copper: 58.4±6.4*; Zinc: 71.4±8.3*; Ruthenium: 67.8±8.3*; (d) Alexa488-SA-labelled immodulator peptide IM1, IM2, IM3, IM4, IM5, IM6 (400 ng/well) were bound to NTA-coated plate charged with the indicated metals: # background (no peptide) control set to 1.0;*p<0.05, **p<0.01 vs “no peptide”

[4] = FITC-PI(4,5)P2 binding to plate-bound peptide with calcium (x9A)
Protocol: (§1) Immodulator peptides IM1, IM3 and IM5 (400 ng/well) in PBS were bound to streptavidin-coated 96-well plates at room temperature for 60 minutes, in the presence or absence of 500 uM calcium chloride. Each well also received 200 ng cold PPI plus 10 ng FITC-labeled PI(4,5)P2 or PI(4)P1. The tables below show the relative fluorescence (with/without calcium background) expressed as a percentage of the highest binder, FITC-PI(4,5)P2+cold PI(3,5)P2, which was 2,496 fluorescence units. Background binding without calcium was, in all cases, 200-300 fluorescence units.

[5] = FITC-PI(4)P1 binding to plate-bound peptide with calcium (x9A)
Protocol: as §1

[6] = target: T1, AA111-228 DNA-binding domain of RXR-alpha (RXRa-DBD) (Homo sapiens, UniProt P19793); assay: Binding to RXRa-DBD (x3A); settings: 1 ug/well RXRa-DBD, 800 ng/well SA488-labelled peptide; background subtracted
T1 construct: purchased Abcam, Cambridge, MA
T1 sequence (P19793 111-228): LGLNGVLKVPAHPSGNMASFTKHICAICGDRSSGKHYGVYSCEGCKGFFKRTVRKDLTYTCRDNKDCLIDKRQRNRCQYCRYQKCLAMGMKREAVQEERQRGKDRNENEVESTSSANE
Protocol: Binding of immodulator peptides to AA111-228 DNA-binding domain of RXR-alpha (RXRa-DBD). 1 ug/well recombinant RXRa-DBD (Abcam, Cambridge, MA) was adsorbed to wells of a 96-well plate for 60 minutes at RT, then blocked with 200 uL 1% BSA in PBS buffer overnight. Plate was washed and 800 ng/well Streptavidin-Alexa 488 conjugate (SA488)-labelled IM peptide was added. The plate was incubated for 60 min at room temperature, washed and counted in a standard fluorometer (excitation/emission 485/525 nm). Background (buffer alone) was subtracted.

Row | Percent Flowthrough [1] [%] | Percent retained [1] [%] | binding to PI spot [2] | binding to PI(3,4,5)P3 spot [2] | binding to PI(4)P1 spot [2] | binding to PI(4,5)P2 spot [2] | fluorescence ([3]; Calcium) | fluorescence ([3]; Copper) | fluorescence ([3]; Ferrous iron, 400 ng/well) | fluorescence ([3]; Zinc) | fluorescence [6] | Structure (SMILES) | further results
1 | 100.0 | 0 | 0 | 0 | 0 | 0 | 1.1 ± 0.1 | 3.0 ± 0.1** | 1.2 ± 0.3 | 1.1 ± 0.2 | 670±85 | CSCC[C@H](NC(=O)[C@H](CO)NC(=O)[C@@H](NC(=O)[C@H](CCC(=O)O)NC(=O)[C@H](CS)NC(=O)[C@H](CCC(N)=O)NC(=O)[C@H](CCCNC(=N)N)NC(=O)[C@H](CO)NC(=O)[C@H](Cc1c[nH]cn1)NC(=O)[C@H](Cc1ccc(O)cc1)NC(=O)[C@H](Cc1ccccc1)NC(=O)CNC(=O)[C@H](CC(N)=O)NC(=O)[C@@H](N)CCCCN)[C@@H](C)O)C(=O)N[C@@H](CC(=O)O)C(=O)NCC(=O)N[C@@H](CCC(=O)O)C(=O)N[C@@H](C)C(=O)NCC(=O)N[C@@H](CC(C)C)C(=O)N[C@@H](CS)C(=O)N[C@@H](Cc1c[nH]c2ccccc12)C(=O)O [IM1] (H-KNGFYHSRQCETSMDGEAGLCW-OH; N-terminus and C-terminus assumed) | relative fluorescence, FITC-PI(4,5)P2 bound ([4]; cold PPI: 3,4,5-P3, calcium): 0.1 percentage of the highest binder; relative fluorescence, FITC-PI(4,5)P2 bound ([4]; cold PPI: 3,4-P2, calcium): 1.1 percentage of the highest binder; relative fluorescence, FITC-PI(4,5)P2 bound ([4]; cold PPI: 3,5-P2, calcium): 4.3 percentage of the highest binder; relative fluorescence, FITC-PI(4,5)P2 bound ([4]; cold PPI: 3-P1, calcium): 3.1 percentage of the highest binder; relative fluorescence, FITC-PI(4,5)P2 bound ([4]; cold PPI: 4,5-P2, calcium): 0.8 percentage of the highest binder; relative fluorescence, FITC-PI(4,5)P2 bound ([4]; cold PPI: 4-P1, calcium): 1.3 percentage of the highest binder; relative fluorescence, FITC-PI(4,5)P2 bound ([4]; cold PPI: 5-P1, calcium): 0.5 percentage of the highest binder; relative fluorescence, FITC-PI(4,5)P2 bound ([4]; cold PPI: None, 500 uM calcium chloride): 1.6 percentage of the highest binder; relative fluorescence, FITC-PI(4)P1 bound ([5]; cold PPI: 3,4,5-P3): 0.1 percentage of the highest binder; relative fluorescence, FITC-PI(4)P1 bound ([5]; cold PPI: 3,4-P2): 2.6 percentage of the highest binder; relative fluorescence, FITC-PI(4)P1 bound ([5]; cold PPI: 3,5-P2): 4.3 percentage of the highest binder; relative fluorescence, FITC-PI(4)P1 bound ([5]; cold PPI: 3-P1): 3.1 percentage of the highest binder; relative fluorescence, FITC-PI(4)P1 bound ([5]; cold PPI: 4,5-P2): 0.8 percentage of the highest binder; relative fluorescence, FITC-PI(4)P1 bound ([5]; cold PPI: 4-P1): 2.7 percentage of the highest binder; relative fluorescence, FITC-PI(4)P1 bound ([5]; cold PPI: 5-P1): 0.5 percentage of the highest binder; relative fluorescence, FITC-PI(4)P1 bound ([5]; cold PPI: None): 1.6 percentage of the highest binder
2 | 100.0 | 0 | 0 | 0 | 0 | 0 | 1.7 ± 0.2* | 3.6 ± 0.1** | 1.4 ± 0.3 | 1.1 ± 0.1 | 2±38 | CSCC[C@H](NC(=O)[C@H](CCCCN)NC(=O)[C@H](CS)NC(=O)[C@H](CCC(N)=O)NC(=O)[C@H](CCCCN)NC(=O)[C@H](CC(C)C)NC(=O)[C@H](CC(N)=O)NC(=O)[C@H](Cc1ccc(O)cc1)NC(=O)[C@H](CC(C)C)NC(=O)CNC(=O)[C@H](Cc1c[nH]cn1)NC(=O)[C@@H](N)CCCCN)C(=O)N[C@@H](CO)C(=O)N[C@@H](CC(C)C)C(=O)N[C@@H](CC(N)=O)C(=O)NCC(=O)N[C@@H](CCC(N)=O)C(=O)N[C@@H](CCCNC(=N)N)C(=O)NCC(=O)N[C@@H](CCC(=O)O)C(=O)N[C@@H](CS)C(=O)N[C@@H](Cc1c[nH]c2ccccc12)C(=O)O [IM2] | –
3 | 100.0 | 0 | 0 | 0 | 0 | 0 | 1.0 ± 0.1 | 5.7 ± 0.1** | 2.8 ± 1.4 | 1.2 ± 0.2 | 27±31 | CC(C)C[C@H](NC(=O)[C@H](C)NC(=O)[C@@H]1CCCN1C(=O)[C@H](Cc1c[nH]cn1)NC(=O)[C@H](CS)NC(=O)[C@H](CCC(N)=O)NC(=O)[C@H](CCCCN)NC(=O)[C@@H]1CCCN1C(=O)[C@H](Cc1c[nH]cn1)NC(=O)[C@H](Cc1ccccc1)NC(=O)[C@H](CC(N)=O)NC(=O)CNC(=O)[C@H](CC(N)=O)NC(=O)[C@@H](N)CCCNC(=N)N)C(=O)N[C@@H](CC(=O)O)C(=O)NCC(=O)N[C@@H](CCC(N)=O)C(=O)N[C@@H](CCCNC(=N)N)C(=O)NCC(=O)N[C@@H](CCCCN)C(=O)N[C@@H](CS)C(=O)N[C@@H](Cc1c[nH]c2ccccc12)C(=O)O [IM4] (H-RNGNFHPKQCHPALDGQRGKCW-OH; N-terminus and C-terminus assumed) | –
